Experimental data as given in PMC2692652 (Biochemistry, 2009).

Experiments:
R446A M. tb PGDH [1] = target: T1, R446A M. tb PGDH (Mycobacterium tuberculosis, UniProt P9WNX3, R445A); assay type: biochemical; details: pH 7.5
[2] = target: R446A-R501A-K439A M. tb PGDH (Mycobacterium tuberculosis, UniProt P9WNX3, K438A/R445A/R500A); assay type: biochemical; details: pH 7.5
H447A M. tb PGDH [3] = target: T2, H447A M. tb PGDH (Mycobacterium tuberculosis, UniProt P9WNX3, H446A); assay type: biochemical; details: pH 7.5
[4] = target: T3, R451A-R501A-K439A M. tb PGDH (Mycobacterium tuberculosis, UniProt P9WNX3, K438A/R450A/R500A); assay type: biochemical
R451A M. tb PGDH = R451A M. tb PGDH (Mycobacterium tuberculosis, UniProt P9WNX3, R450A); assay type: biochemical; details: pH 7.5
K439A M. tb PGDH [5] = target: T4, K439A M. tb PGDH (Mycobacterium tuberculosis, UniProt P9WNX3, K438A); assay type: biochemical; details: pH 7.5
R501A M. tb PGDH [6] = target: T5, R501A M. tb PGDH (Mycobacterium tuberculosis, UniProt P9WNX3, R500A); assay type: biochemical; details: pH 7.5
W327F M. tb PGDH [7] = target: T6, W327F M. tb PGDH (Mycobacterium tuberculosis, UniProt P9WNX3, W326F); assay type: biochemical; details: pH 7.5
W29F M. tb PGDH [8] = target: T7, W29F M. tb PGDH (Mycobacterium tuberculosis, UniProt P9WNX3, W28F); assay type: binding; details: pH 7.5
[9] = target: T3, R451A-R501A-K439A M. tb PGDH; assay type: biochemical; details: pH 7.5
W29F M. tb PGDH [10] = target: T7, W29F M. tb PGDH; assay type: biochemical; details: pH 7.5
[11] = system: native and mutant M. tb PGDH; experiment: NADH dependence of steady state activity, summary over enzymes; assay type: biochemical, Mycobacterium tuberculosis
[12] = target: T3, R451A-R501A-K439A M. tb PGDH; assay type: binding; details: pH 7.5
W327F M. tb PGDH [13] = target: T6, W327F M. tb PGDH; assay type: binding; details: pH 7.5
R446A M. tb PGDH [14] = target: T1, R446A M. tb PGDH; details: read-out: Ki, HPAP (substrate inhibition); cited from earlier work
R501A M. tb PGDH [15] = target: T5, R501A M. tb PGDH; details: read-out: Ki, HPAP (substrate inhibition); cited from earlier work
K439A M. tb PGDH [16] = target: T4, K439A M. tb PGDH; details: read-out: Ki, HPAP (substrate inhibition); cited from earlier work
H447A M. tb PGDH [17] = target: T2, H447A M. tb PGDH; details: read-out: Ki, HPAP (substrate inhibition); cited from earlier work

Q: Which results are given for N[C@@H](CO)C(=O)O [L-serine]?
A: n (Hill coefficient), serine inhibition, High Substrate (R446A M. tb PGDH [1]): 0.9 ± 0.1; n (Hill coefficient), serine inhibition, Peak Substrate (R446A M. tb PGDH [1]): 1.3 ± 0.1; n (Hill coefficient), serine inhibition, Peak Substrate [2]: 1.0 ± 0.1; n (Hill coefficient), serine inhibition, High Substrate (H447A M. tb PGDH [3]): 1.5 ± 0.1; n (Hill coefficient), serine inhibition, Peak Substrate (H447A M. tb PGDH [3]): 1.7 ± 0.1; Inhibition of catalytic activity by serine [4]: unable to be inhibited; n (Hill coefficient), serine inhibition, High Substrate (R451A M. tb PGDH): 1.7 ± 0.3; n (Hill coefficient), serine inhibition, Peak Substrate (R451A M. tb PGDH): 1.6 ± 0.1; n (Hill coefficient), serine inhibition, High Substrate (K439A M. tb PGDH [5]): 1.2 ± 0.1; n (Hill coefficient), serine inhibition, Peak Substrate (K439A M. tb PGDH [5]): 1.2 ± 0.1; n (Hill coefficient), serine inhibition, High Substrate (R501A M. tb PGDH [6]): 1.7 ± 0.1; n (Hill coefficient), serine inhibition, Peak Substrate (R501A M. tb PGDH [6]): 1.5 ± 0.1

Q: With NADH as the compound, how does the “K0.5, Activity vs NADH” value (W327F M. tb PGDH [7]) read?
A: 89 ± 4 µM

Q: And the “n (Hill coefficient), Activity vs NADH” value (W327F M. tb PGDH [7])?
A: 2.0 ± 0.1

Q: And the “K0.5, FRET vs NADH” value (W29F M. tb PGDH [8])?
A: 1.9 ± 0.1 µM

Q: What about the “n (Hill coefficient), FRET vs NADH” value (W29F M. tb PGDH [8]) of the same compound?
A: 1.2 ± 0.1

Q: What about the “K0.5, Activity vs NADH” value [9] of the same compound?
A: 83 ± 13 µM

Q: What about the “n (Hill coefficient), Activity vs NADH” value [9] of the same compound?
A: 1.5 ± 0.2

Q: What about the “K0.5, Activity vs NADH” value (W29F M. tb PGDH [10]) of the same compound?
A: 99 ± 2 µM

Q: What about the “n (Hill coefficient), Activity vs NADH” value (W29F M. tb PGDH [10]) of the same compound?
A: 2.2 ± 0.1

Q: And the “K0.5 for NADH for activity” value [11]?
A: 80 to 100 mM

Q: And the “K0.5, FRET vs NADH” value [12]?
A: 3.6 ± 0.1 µM

Q: What about the “n (Hill coefficient), FRET vs NADH” value [12] of the same compound?
A: 2.3 ± 0.2

Q: And the “K0.5, FRET vs NADH” value (W327F M. tb PGDH [13])?
A: 3.0 ± 0.3 µM

Q: And the “n (Hill coefficient), FRET vs NADH” value (W327F M. tb PGDH [13])?
A: 1.7 ± 0.3

Q: For hydroxypyruvic acid phosphate [HPAP], which Ki (R446A M. tb PGDH [14]) is on record?
A: 289 ± 15 µM

Q: And the Ki (R501A M. tb PGDH [15])?
A: 1020 ± 30 µM

Q: And the Ki (K439A M. tb PGDH [16])?
A: 54 ± 4 µM

Q: What about the Ki (H447A M. tb PGDH [17]) of the same compound?
A: 870 ± 50 µM
